Test results reported in US20220380341A1, “INHIBITORS OF HIV-1 NEF FOR THE TREATMENT OF HIV DISEASE” (priority 2018, published 2022).
Where two headings read alike, the source gives them in different places.

Tests used:
[1] = tested on: TZM-bl cell line; format: cell-based; details: human, 1 μM
Method in brief: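 Read-out is luciferase from an integrated HIV-1 LTR reporter in TZM-bl cells, 48 h after HIV-1NL4-3 infection in the presence of 1 μM compound. Scale set by DMSO-treated wild-type-infected cells (0%) and Nef-defective virus (100% Nef-dependent effect). Cell Titer Blue measures cytotoxicity without virus.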

[2] = target: HIV-1 NefNL4-3 (Human immunodeficiency virus type 1 group M subtype B, UniProt P03406, A33V/T15A/T51N/V11I); assay: Surface plasmon resonance binding to recombinant full-length Nef (NL4-3); details: for RU30/RUNef (extent of binding): response units at 30 μM relative to Nef immobilized on the SPR chip
[3] = tested on: HIV-1NL4-3; assay: HIV-1 infectivity assay in TZM-bl reporter cell line (LTR-luciferase, 48 h); format: cell-based; details: Human immunodeficiency virus 1, TZM-bl
Method in brief: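 Luciferase read-out 48 h post-infection; compound at 1 μM during HIV-1NL4-3 infection of TZM-bl cells. Percent inhibition scaled to DMSO wild-type virus (0%) and DMSO Nef-defective virus (100% of Nef-dependent effect). Viability checked separately in uninfected cells by Cell Titer Blue.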

[4] = 48 h, Table 1, TZM-bl cells, 1 μM, 48 h, 100% = Nef-defective HIV-1, read-out: HIV-1 Infectivity % Inhibition Norm. to Δ-Nef @ 1 μM
[5] = KD, M, Table 4, SPR fit 1:1 Langmuir, KD = koff/kon
[6] = Table 4, 1:1 Langmuir fit, T = 1/koff
[7] = 1.0 μM, TZM-bl reporter cell line, Table 4, read-out: % Infectivity Inhibition
[8] = KD, M, Table 4, SPR fit 2-step induced fit, KD = koff/kon × koff2/(koff2 + kon2)
[9] = Nef NL4-3 Binding, SPR 2-state fitting KD, Table 1, 2-step induced-fit model
[10] = Table 4, 2-step induced fit, T = 1/koff2
[11] = read-out: Nef NL4-3 Binding, SPR 1:1 or 2-site fitting KD2, Table 1, 2-site fit, second component

SMILES | Percent Viability @ 1 μM (TZM-bl cells) [1] | Kd [2] | inhibition at 1 µM [3, 4] | % Cell Viability [1] | Kd [2, 5] | T, minutes (residence time) [2, 6] | RU30/RUNef (extent of binding) [2] | inhibition at 1 µM [3, 7] | Kd [2, 8] | Kd [2, 9] | T, minutes (residence time) [2, 10] | Kd [2, 11] | Nef NL4-3 Binding, SPR 1:1 or 2-site fitting KD1 ([2]; Table 1, 1:1 Langmuir fit where the KD2 cell says '1 to 1 fitting', else 2-site fit)
CC(C)(C)OC(=O)N1CCC(c2nn(-c3nc4ccncc4[nH]3)c(O)c2CCc2ccc(F)cc2)CC1 [Compound I-221, tert-butyl 4-{4-[2-(4-fluorophenyl)ethyl]-5-hydroxy-1-{3H-imidazo[4,5-c]pyridin-2-yl}-1H-pyrazol-3-yl}piperidine-1-carboxylate] | 103.1% | 12800 nM | 10.6% |  |  |  |  |  |  |  |  |  | 
Oc1c(CCc2ccc(F)cc2)c(-c2ccc(C(F)(F)F)cn2)nn1-c1nc2cccnc2[nH]1 [Compound I-302, 4-[2-(4-fluorophenyl)ethyl]-1-{3H-imidazo[4,5-b]pyridin-2-yl}-3-[5-(trifluoromethyl)pyridin-2-yl]-1H-pyrazol-5-ol] | 98.9% | 3610 nM | -2.4% | 98.9% | 3610 nM | 8.82E + 00 minutes | 1.66E- 03 | 0% |  |  |  |  | 
Cc1ccn(CCc2c(-c3ccc(C(F)(F)F)cc3)nn(-c3nc4cccnc4[nH]3)c2O)n1 [Compound I-303, 1-{3H-imidazo[4,5-b]pyridin-2-yl}-4-[2-(3-methyl-1H-pyrazol-1-yl)ethyl]-3-[4-(trifluoromethyl)phenyl]-1H-pyrazol-5-ol] | 98.3% | 396 nM | 40.6% | 98.3% | 396 nM | 9.47E + 01 minutes | 3.06E- 03 | 40.1% |  |  |  |  | 
Oc1c(CCC2CCOCC2)c(-c2cccc(F)c2)nn1-c1nc2cccnc2[nH]1 [Compound I-304, 3-(3-fluorophenyl)-1-{3H-imidazo[4,5-b]pyridin-2-yl}-4-[2-(oxan-4-yl)ethyl]-1H-pyrazol-5-ol] | 98.7% | 138 nM | -2% | 98.7% |  |  | 5.25E- 03 | 0% | 3150 nM | 3150 nM | 1.25E + 01 minutes | 40300 nM | 
CS(=O)(=O)c1cccc(-c2nn(-c3nc4cccnc4[nH]3)c(O)c2CCC2CCOCC2)c1 [Compound I-305, 1-{3H-imidazo[4,5-b]pyridin-2-yl}-3-(3-methanesulfonylphenyl)-4-[2-(oxan-4-yl)ethyl]-1H-pyrazol-5-ol] | 96.8% | 744 nM | 59.3% | 96.8% | 744 nM | 1.13E + 01 minutes | 2.13E- 03 | 59.3% |  |  |  |  | 
O=C(OCc1ccccc1)N1CCC(c2nn(-c3nc4cccnc4[nH]3)c(O)c2CCc2ccc(F)cc2)CC1 [Compound I-306, benzyl 4-{4-[2-(4-fluorophenyl)ethyl]-5-hydroxy-1-{3H-imidazo[4,5-b]pyridin-2-yl}-1H-pyrazol-3-yl}piperidine-1-carboxylate] | 95.7% | 13.6 nM | -5.2% | 95.7% |  |  | 9.61E- 03 | 0% | 731 nM | 731 nM | 3.52E + 01 minutes | 5430 nM | 
Oc1c(CCc2ccc(F)cc2)c(CCCc2ccc(F)cc2)nn1-c1nc2cccnc2[nH]1 [Compound I-307, 4-[2-(4-fluorophenyl)ethyl]-3-[3-(4-fluorophenyl)propyl]-1-{3H-imidazo[4,5-b]pyridin-2-yl}-1H-pyrazol-5-ol] | 98.2% | 890 nM | 47.5% | 98.2% | 890 nM | 1.14E + 01 minutes | 6.84E- 03 | 47.5% |  |  |  |  | 
O=C(OCc1ccccc1)N1CCC(c2nn(-c3nc4ccncc4[nH]3)c(O)c2CCc2ccc(F)cc2)CC1 [Compound I-310, benzyl 4-{4-[2-(4-fluorophenyl)ethyl]-5-hydroxy-1-{3H-imidazo[4,5-c]pyridin-2-yl}-1H-pyrazol-3-yl}piperidine-1-carboxylate] | 105.6% | 50.2 nM | 36.6% | 100% | 50.2 nM | 3.56E + 02 minutes | 2.36E- 03 | 36.6% |  |  |  |  | 
CS(=O)(=O)c1cccc(-c2nn(-c3nc4cccnc4[nH]3)c(O)c2CCc2ccc(F)cc2)c1 [Compound I-311, 4-[2-(4-fluorophenyl)ethyl]-1-{3H-imidazo[4,5-b]pyridin-2-yl}-3-(3-methanesulfonylphenyl)-1H-pyrazol-5-ol] | 94.5% | 1010 nM | 29.8% |  |  |  |  |  |  |  |  |  | 
Oc1c(CC2CCOCC2)c(C2CCOCC2)nn1-c1nc2cccnc2[nH]1 [Compound I-312, 1-{3H-imidazo[4,5-b]pyridin-2-yl}-3-(oxan-4-yl)-4-[(oxan-4-yl)methyl]-1H-pyrazol-5-ol] | 100.1% |  | -33.7% |  |  |  |  |  |  |  |  |  | No Interaction
Oc1c(CC2CCOCC2)c(-c2ccc(F)cc2)nn1-c1nc2cccnc2[nH]1 [Compound I-313, 3-(4-fluorophenyl)-1-{3H-imidazo[4,5-b]pyridin-2-yl}-4-[(oxan-4-yl)methyl]-1H-pyrazol-5-ol] | 96.7% | 480 nM | 33.2% | 96.7% | 480 nM | 2.92E + 01 minutes | 5.15E- 03 | 33.2% |  |  |  |  | 
Oc1c(CCc2ccc(F)cc2)c(C2CCOCC2)nn1-c1nc2cccnc2[nH]1 [Compound I-314, 4-[2-(4-fluorophenyl)ethyl]-1-{3H-imidazo[4,5-b]pyridin-2-yl}-3-(oxan-4-yl)-1H-pyrazol-5-ol] | 100.1% | 705 nM | -1% | 100% | 705 nM | 1.79E + 01 minutes | 2.97E- 03 | 0% |  |  |  |  | 
Oc1c(CC2CCOCC2)c(C2CC2)nn1-c1nc2cccnc2[nH]1 [Compound I-315, 3-cyclopropyl-1-{3H-imidazo[4,5-b]pyridin-2-yl}-4-[(oxan-4-yl)methyl]-1H-pyrazol-5-ol] | 100.6% | 1880 nM | 28.5% |  |  |  |  |  |  |  |  |  | 
Oc1c(CC2CCOCC2)c(C2CC(F)(F)C2)nn1-c1nc2cccnc2[nH]1 [Compound I-316, 3-(3,3-difluorocyclobutyl)-1-{3H-imidazo[4,5-b]pyridin-2-yl}-4-[(oxan-4-yl)methyl]-1H-pyrazol-5-ol] |  |  |  | 99.7% | 4490 nM | 5.19E + 00 minutes | 1.19E- 03 | 32.8% |  |  |  |  | 
